The target in one data set is CYP3A4 (Homo sapiens (Human), UniProt P08684). The experiment in a line: Fluorometric CYP450 enzyme inhibition assay, CYP3A4. In kind it is biochemical. The settings on record: human recombinant CYP3A4, BFC substrate; read-out: CYP450 IC50 3A4. How it is done: (§1) The CYP450 inhibition assays utilized microsomes from insect cells expressing human recombinant individual cDNA-expressed CYP isoforms 3A4 and 2D6, as well as the fluorogenic probe that produces fluorescent metabolite. Standard inhibitors were co-incubated with fluorogenic substrates and their inhibitory potential (IC50) was determined. Assay conditions in terms of CYP450 protein concentration and time of incubation were standardized, enzyme kinetics parameters of each fluorescent probe substrate were estimated and IC50 values of inhibitors were determined and validated on different days to check reproducibility.
(§2) A 100 mM sodium phosphate buffer was prepared and adjusted to pH 7.4. In a separate falcon tube, a 2× enzyme/substrate (E/S) solution was prepared in phosphate buffer. The final concentration of CYP2D6 (CORNING®) and […] (AMMC) was 10 nM and 4 μM, and CYP3A4 (CORNING®) and 7-benzyloxy-4-(trifluoromethyl) coumarin (BFC) was 20 nM and 40 μM, respectively. In a separate falcon tube, a 2×NADPH regenerating system (NRS) was prepared in phosphate buffer. The final concentration for each component in the assay was as follows: • CYP2D6 assay: 0.008 mM NADPH, 3.3 mM glucose 6-phosphate, 0.4 U of glucose-6-phosphate dehydrogenase per mL
Both enzymatic assays were conducted in a 96-well microtiter plate (Black, CORNING® COSTAR®) with a final volume of 100 μL. Preparation of the plate began with the addition of 74 μL of the E/S in the first well, and 50 μL to all subsequent wells (from 2-11). […] A 1:3 serial dilution of the test compound was conducted by removing 25 μL from the first well and diluting it with the second and so forth until the tenth row. Final concentrations yielded a range from 200 μM-0.01 μM. Well no. 11 contained no inhibitor, and well no. 12 contained no enzyme. Both were used as controls for background fluorescence. The plate was incubated for 30 min at 37° C. After incubation, the reaction was initiated by the addition of 50 μL of the 2×NRS to each well.
Immediately (within 1 min) the fluorescence was measured using a microplate reader (BIOTEK® Synergy Neo2). […] Data was exported and analyzed using Graph Pad Prism 7. […] The IC50 value was derived after the data was fitted on a 10-point curve using a four-parameter logistic regression model.

Another data set has as its target CYP2D6 (Homo sapiens (Human), UniProt P10635). The experiment in a line: biochemical. The note with it: human recombinant CYP2D6, AMMC substrate; read-out: CYP450 IC50 2D6. Format: biochemical. How it is done: as §1, §2
Both enzymatic assays were conducted in a 96-well microtiter plate (Black, CORNING® COSTAR®) with a final volume of 100 μL. Preparation of the plate began with the addition of 74 μL of the E/S in the first well, and 50 μL to all subsequent wells (from 2-11). The test compounds (1 μL) were dissolved in the first well to give the first row a final volume of 75 μL. A 1:3 serial dilution of the test compound was conducted by removing 25 μL from the first well and diluting it with the second and so forth until the tenth row. Final concentrations yielded a range from 200 μM-0.01 μM. Well no. 11 contained no inhibitor, and well no. 12 contained no enzyme. Both were used as controls for background fluorescence. The plate was incubated for 30 min at 37° C. After incubation, the reaction was initiated by the addition of 50 μL of the 2×NRS to each well.
Immediately (within 1 min) the fluorescence was measured using a microplate reader (BIOTEK® Synergy Neo2). CYP2D6 was monitored at Ex/Em=410/460 nm, and CYP3A4 monitored at Ex/Em=410/538 nm in kinetic mode that scanned every 5 min for 60 mins. Data was exported and analyzed using Graph Pad Prism 7. […] The IC50 value was derived after the data was fitted on a 10-point curve using a four-parameter logistic regression model.

The nature of data set [1]: Metabolic stability assay in human liver microsomes (HLM). Format: in vitro ADME. The settings on record: NADPH, sampled 0-120 min; for HLM t1/2: 3 μM test compound; for half-life at 3 µM: pH 7.4, 3 μM test compound, read-out: HLM t1/2. How it is done:
The LC-MS/MS analysis was performed using Agilent 1260 Infinity II HPLC, coupled with an Agilent G6460 triple quadrupole mass spectrometer (Agilent Technologies, USA). All the data were acquired employing Agilent 6460 Quantitative Analysis data processing software.
Reverse-phase HPLC separation for each compound was achieved either on an Agilent Porshell 120 EC-C8 column (2.1×50 mm, 2.7 μm), or on an Agilent Zorbax XDB C18 column (2.1×50 mm, 3.5 μm) with a mobile phase composed of methanol-water-formic acid or acetonitrile-water-formic acid (0.1%) at a flow rate of 0.5 mL/min (changes for some compounds). Each method was developed in the presence of an internal standard (ISTD) d5-7-ethoxy coumarin. The column temperature was maintained at 40° C. for most of the samples otherwise noted. The detection was operated in the Agilent JetStream electrospray positive ionization using multiple reaction monitoring mode (MRM).
Other MS conditions were as follows: dwell time 100 ms; gas flow 10 L/min; nebulizer pressure 45 psi; delta EMV 200 V; fragmentor voltage and collision energy for individual compounds vary.
Test compounds were dissolved in 100% DMSO or 100% MeOH to make 10 mM stock solutions. Verapamil (Sigma Aldrich) aided as a positive control and was dissolved in 100% DMSO to make 10 mM stock solutions. The 10 mM stock solution of test and control compounds were further diluted in potassium phosphate buffer (100 mM, pH 7.4) to 500 μM to ensure the organic solvent content was <0.2%. Human liver microsomes (HLMs) were purchased from Xenotech at 20 mg/mL. NADPH (Sigma Aldrich) 10 mM stocks were prepared in deionized water.
The HLM assay was prepared in a 1.5 mL Eppendorf tube with a final volume of 1100 μL for duplicate runs. Each reaction contained phosphate buffer (928.4 μL), liver microsomes (55 μL), and test compound resulting in a final concentration of 3 μM (6.6 μL of 500 μM). The reaction was initiated with 110 μL of 10 mM NADPH. Aliquots (100 μL) were removed in duplicate at 0, 15, 30, 60, 120 min (for prodrug compounds) and 0, 5, 10, 15, 30 min (verapamil, positive control compound) time intervals and quenched in cold […] of 100% methanol which contained internal standard (ISTD: d5-7-ethoxy coumarin 4 μM). Before centrifugation each of the aliquoted tubes were vortexed to make sure compounds were in the solution. The aliquots were centrifuged at 12,000 g for 5 min and the supernatant removed and placed in an LC-MS vial. Each time point was assessed using LC-MS and the area, based on the extracted ion, was integrated with respect to the ISTD. Positive controls were conducted at a final volume of 550 μL to give each time point in a single run. A no-NADPH negative control with test or control compound was performed in a single run (150 μL) at the longest time point. Controls were processed and analyzed like the test compounds. Each time point was run in duplicates followed by in-between blank washes to avoid the carryover and to equilibrate the column.
Background: Liver microsomes are a subcellular fraction often used to study metabolism.

Another data set relates to HEK293 cells. The settings on record: 50% cytotoxic concentration; italicized results: absence of human serum albumin.

Chain of CYP2D6 (P10635 whole entry): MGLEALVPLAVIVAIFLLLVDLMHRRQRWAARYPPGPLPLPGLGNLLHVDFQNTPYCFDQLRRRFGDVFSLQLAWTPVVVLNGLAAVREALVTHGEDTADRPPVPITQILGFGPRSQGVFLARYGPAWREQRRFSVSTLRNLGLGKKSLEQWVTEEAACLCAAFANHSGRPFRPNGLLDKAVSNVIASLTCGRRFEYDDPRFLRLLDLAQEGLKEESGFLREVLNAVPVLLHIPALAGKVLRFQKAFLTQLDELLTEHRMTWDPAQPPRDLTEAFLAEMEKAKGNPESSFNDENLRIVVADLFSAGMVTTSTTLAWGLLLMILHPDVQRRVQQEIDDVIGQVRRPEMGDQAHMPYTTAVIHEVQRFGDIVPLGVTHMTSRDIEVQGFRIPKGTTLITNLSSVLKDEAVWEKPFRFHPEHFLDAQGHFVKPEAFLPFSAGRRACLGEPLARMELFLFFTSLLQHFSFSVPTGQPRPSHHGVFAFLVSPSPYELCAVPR
Chain of CYP3A4 (P08684 whole entry, canonical isoform): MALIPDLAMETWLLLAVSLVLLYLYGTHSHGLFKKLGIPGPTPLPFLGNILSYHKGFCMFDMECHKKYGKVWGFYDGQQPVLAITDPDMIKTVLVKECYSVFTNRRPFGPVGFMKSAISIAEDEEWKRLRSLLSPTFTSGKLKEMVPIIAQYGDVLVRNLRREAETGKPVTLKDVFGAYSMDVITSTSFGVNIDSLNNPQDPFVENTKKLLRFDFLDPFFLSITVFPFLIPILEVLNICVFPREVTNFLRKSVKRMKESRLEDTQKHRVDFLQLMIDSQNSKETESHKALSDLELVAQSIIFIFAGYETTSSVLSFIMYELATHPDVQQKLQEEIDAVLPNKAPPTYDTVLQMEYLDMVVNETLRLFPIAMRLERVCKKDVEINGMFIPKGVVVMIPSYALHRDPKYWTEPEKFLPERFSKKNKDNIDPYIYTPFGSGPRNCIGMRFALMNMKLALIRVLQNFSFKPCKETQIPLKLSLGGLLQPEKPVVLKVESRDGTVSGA

For orientation: IC50 means the concentration needed to halve the response being measured. The term CC50 denotes the concentration at which the toxic effect on the cells reaches its halfway point. Lower therefore signals harm at low concentration. On to `C#CCCCCCCCCCCCCCCCCOP(=O)(O)CO[C@H](C)Cn1cnc2c(N)ncnc21.N` [Compound B1-1-024, Ammonium octadec-17-yn-1-yl ((((R)-1-(6-amino-9H-purin-9-yl)propan-2-yl)oxy)methyl)phosphonate], for which the IC50 is 18.7 µM on CYP3A4 and 2.39 µM at CYP2D6. The “HLM t1/2” value in data set [1] is greater than 2 h. This molecule also yielded a CC50 in the data set on HEK293 cells greater than 100 µM.

For the molecule `C#CCCCCCCCCCCCCCCCCCCOP(=O)(O)CO[C@H](C)Cn1cnc2c(N)ncnc21.N` [Compound B1-1-065, Ammonium icos-19-yn-1-yl (R)-(((1-(6-amino-9H-purin-9-yl)propan-2-yl)oxy)methyl)phosphonate], the IC50 was greater than 50 µM on CYP3A4 and 21.9 µM on CYP2D6. The “HLM t1/2” value in data set [1] is greater than 2 h. Also, in the data set with HEK293 cells, the half-maximal cytotoxic concentration (CC50) stood at 99.5 µM.

Turning to `C#CCCCCCCCCCCCCCOP(=O)(O)CO[C@H](C)Cn1cnc2c(N)ncnc21.N` [EJM-8-006, Ammonium pentadec-14-yn-1-yl (R)-(((1-(6-amino-9H-purin-9-yl)propan-2-yl)oxy)methyl)phosphonate], the results for the IC50 at CYP3A4 and on CYP2D6 were 54.8 µM and 84.9 µM, respectively. Also, the “HLM t1/2” value in data set [1] came to 1.57 h. This molecule also had a CC50 with HEK293 cells greater than 100 µM.

For the molecule `COC(=O)CCCCCCCCCCCCCCCSCCCOP(=O)(O)CO[C@H](C)Cn1cnc2c(N)ncnc21.N` [MD-1-124, Ammonium 3-((16-methoxy-16-oxohexadecyl)thio)propyl (R)-(((1-(6-amino-9H-purin-9-yl)propan-2-yl)oxy)methyl)phosphonate], the IC50 is 40.8 µM on CYP3A4 and 19.2 µM on CYP2D6. The half-life at 3 µM in data set [1] was 0.6 h.

`C[C@H](Cn1cnc2c(N)ncnc21)OCP(=O)(O)OCCCSCCCCCCCCCCCCC#C[Si](C)(C)C.N` [MD-1-187, Ammonium 3-((14-(trimethylsilyl)tetradec-13-yn-1-yl)thio)propyl (R)-(((1-(6-amino-9H-purin-9-yl)propan-2-yl)oxy)methyl)phosphonate]: the IC50 on CYP3A4 and at CYP2D6 was greater than 20 µM throughout. Moreover, the half-life at 3 µM in data set [1] was greater than 2 h.

Regarding `C[C@H](Cn1cnc2c(N)ncnc21)OCP(=O)(O)OCCCSCCCCCCCCCCCOc1ccccc1.N` [MD-1-223, Ammonium 3-((11-phenoxyundecyl)thio)propyl (R)-(((1-(6-amino-9H-purin-9-yl)propan-2-yl)oxy)methyl)phosphonate], the IC50 on CYP3A4 and at CYP2D6 was greater than 20 µM throughout. Also, in data set [1], the half-life at 3 µM turned out to be 0.25 h.

Consider `C#CCCCCCCCCCCCCCCOCCCOP(=O)(O)CO[C@H](C)Cn1cnc2c(N)ncnc21.N` [MD-5-72, Ammonium 3-(hexadec-15-yn-1-yloxy)propyl (R)-(((1-(6-amino-9H-purin-9-yl)propan-2-yl)oxy)methyl)phosphonate], for which the IC50 at CYP3A4 and on CYP2D6 was greater than 20 µM each time. The “HLM t1/2” value in data set [1] is greater than 2 h. Also, the CC50 in the data set on HEK293 cells was greater than 100 µM.

As to `C[C@H](Cn1cnc2c(N)ncnc21)OCP(=O)(O)OCCCCCCCCCCCCCCCCC#C[Si](C)(C)C.N` [NP-PD-042, Ammonium [(1R)-2-(6-aminopurin-9-yl)-1-methyl-ethoxy]methyl-(18-trimethylsilyloctadec-17-ynoxy)phosphinate], the results for the IC50 at CYP3A4 and on CYP2D6 were 27 µM and 27.1 µM, respectively. For the same molecule, the “HLM t1/2” value in data set [1] is greater than 2 h. Also, the CC50 with HEK293 cells came out at 68.1 µM.

With `C[C@H](Cn1cnc2c(N)ncnc21)OCP(=O)(O)OCCCCCCCCCCCCCCCCCC[Si](C)(C)C.N` [NP-PD-051, Ammonium [(1R)-2-(6-aminopurin-9-yl)-1-methyl-ethoxy]methyl-(18-trimethylsilyloctadecoxy)phosphinate], the half-inhibitory concentration (IC50) was determined as 51.4 µM on CYP3A4 and 16.4 µM on CYP2D6. For the same molecule, the half-life at 3 µM in data set [1] was greater than 2 h.

As for `C[C@H](Cn1cnc2c(N)ncnc21)OCP(=O)(O)OCCCCCCCCCCCCCCCCCC#CC(F)(F)F.N` [NP-PD-102, Ammonium [(1R)-2-(6-aminopurin-9-yl)-1-methyl-ethoxy]methyl-(20,20,20-trifluoroicos-18-ynoxy)phosphinate], the IC50 at CYP3A4 and at CYP2D6 was greater than 20 µM throughout. Further, the “HLM t1/2” value in data set [1] is greater than 2 h. The molecule also displayed a CC50 in the data set with HEK293 cells of 78.7 µM.

Turning to `C[C@H](Cn1cnc2c(N)ncnc21)OCP(=O)(O)OCCCCCCCCCCCCCCCCCCCC(F)(F)F.N` [NP-PD-105, ammonium [(1R)-2-(6-aminopurin-9-yl)-1-methyl-ethoxy]methyl-(20,20,20-trifluoroicosoxy)phosphinate], the IC50 on CYP3A4 and on CYP2D6 was greater than 20 µM in each case. In addition, in data set [1], the “HLM t1/2” value was greater than 2 h. The molecule further yielded a CC50 with HEK293 cells of 72.4 µM.

As for `C[C@H](Cn1cnc2c(N)ncnc21)OCP(=O)(O)OCCCOCCCCCCCCCCCCCC#CC(F)(F)F.N` [NP-PD-149, Ammonium [(1R)-2-(6-aminopurin-9-yl)-1-methyl-ethoxy]methyl-[3-(16,16,16-trifluorohexadec-14-ynoxy)propoxy]phosphinate], the IC50 is 12 µM on CYP3A4 and greater than 20 µM at CYP2D6. Further, in data set [1], the “HLM t1/2” value was greater than 2 h. Also, the CC50 in the data set on HEK293 cells was greater than 100 µM.

Take “Ammonium 3-((14-trimethylsilyl)tetradec-13-yn-1-yl)propyl(R)-(((1-(6-amino-9H-purin-9-yl)propan-2-yl)oxy)methyl)phosphonate [NP-PD-130]”: the IC50 on CYP3A4 was greater than 20 µM; at CYP2D6 it was 21.7 µM. In addition, in data set [1], the “HLM t1/2” value was greater than 2 h.

For the origin of these results see patent US12049474B2, “Nucleoside prodrugs and uses related thereto” (Emory University, priority 2019, dated 2024).
